From patent US5114936A, “6,7-dihydro-3-phenyl-1,2-benzisoxazol-4(5H)-ones and -ols, compositions and pharmaceutical use” (Hoechst-Roussel Pharmaceuticals Incorporated, priority 1991, dated 1992)
Structures can show the parent of a compound that is named as a salt.

Each molecule was assayed on phenyl-p-quinone writhing (assay: phenyl-p-quinone writhing assay (analgesia)). Details: Mus musculus, sc; s.c; read-out: ED50 Inhibition of Writhing.
Type: in vivo, mice
Description: Exptl. Biol. Med. 95, 729 (1957)]
With `COc1ccccc1N1CCN(CCCC2CCc3onc(-c4ccccc4)c3C2=O)CC1` (stereo not drawn) [Example 14, 6,7-Dihydro-5-[3-(4-(2-methoxyphenyl)-1-piperazinyl)-propyl]-3-phenyl-1,2-benzisoxazol-4(5H)-one dihydrochloride] the ED50 was 5.18 mg/kg. `O=C(c1ccc(F)cc1)C1CCN(CCCC2CCc3onc(-c4ccccc4)c3C2=O)CC1` (stereo not drawn) [Example 15, 6,7-Dihydro-5-[3-(4-(4-fluorobenzoyl)-1-piperidinyl)-propyl]-3-phenyl-1,2-benzisoxazol-4(5H)-one hydrochloride] showed an ED50 of 3.99 mg/kg. Work on `CCC(=O)O[C@](Cc1ccccc1)(c1ccccc1)[C@H](C)CN(C)C` [propoxyphene, reference compound] yielded an ED50 of 3.9 mg/kg.

The molecules below were run on apomorphine climbing (assay: Climbing Mice Assay (antagonism of apomorphine-induced climbing)). Details: Mus musculus; ip; apomorphine 1.5 mg/kg subcutaneously.
Type: in vivo, mice (CK-1 male mice)
Description: Antipsychotic activity is determined in the Climbing Mice Assay by a method similar to that described by P. Protais, et al., Psychopharmacol., 50, 1 (1976) and B. Costall, Eur. J. Pharmacol., 50, 39 (1978).
The subject CK-1 male mice (23-27 grams) are group-housed under standard laboratory conditions. The mice are individually placed in wire mesh stick cages (4"×4"×10") and are allowed one hour for adaptation and exploration of the new environment. Then apomorphine is injected subcutaneously at 1.5 mg/kg, a dose causing climbing in all subjects for 30 minutes.
Compounds to be tested for antipsychotic activity are injected intraperitoneally or given orally at various time intervals, e.g. 30 minutes, 60 minutes, etc. prior to the apomorphine challenge at a screening dose of 10-60 mg/kg.
For evaluation of climbing, 3 readings are taken at 10, 20 and 30 minutes after apomorphine administration according to the following scale:
4 paws on bottom (no climbing)
2 paws on the wall (rearing)
4 paws on the wall (full climb)
Mice consistently climbing before the injection of apomorphine will be discarded.
With full-developed apomorphine climbing, the animals are hanging on to the cage walls, rather motionless, over longer periods of time. By contrast, climbs due to mere motor stimulation usually only last a few seconds.
The climbing scores are individually totaled (maximal score: 6 per mouse over 3 readings) and the total score of the control group (vehicle intraperitoneally-apomorphine subcutaneously) is set to 100%. ED50 values with 95% confidence limits, calculated by a linear regression analysis, of some of the compounds of the instant invention as well as a standard antipsychotic agent are presented in Table I.
`Cl.O=C1c2c(-c3ccccc3)noc2CCC1CCCN1CCC(c2ccc(F)cc2)CC1` (stereo not drawn) [6,7-dihydro-5-[3-(4-(4-fluorophenyl)-1-piperidinyl)-propyl]-3-phenyl-1,2-benzisoxazol-4(5H)-one hydrochloride] was tested, and the ED50 was 6.36 mg/kg. `COc1ccccc1N1CCN(CCCC2CCc3onc(-c4ccccc4)c3C2=O)CC1` (stereo not drawn) [Example 14, 6,7-Dihydro-5-[3-(4-(2-methoxyphenyl)-1-piperazinyl)-propyl]-3-phenyl-1,2-benzisoxazol-4(5H)-one dihydrochloride] showed an ED50 of 15 mg/kg. `Cl.O=C(c1ccc(F)cc1)C1CCN(CCCC2CCc3onc(-c4ccccc4F)c3C2=O)CC1` (stereo not drawn) [Example 19, 6,7-Dihydro-5-[3-(4-(4-fluorobenzoyl)-1-piperidinyl)-propyl]-3-(2-fluorophenyl)-1,2-benzisoxazol-4(5H)-one hydrochloride] gave an ED50 of 2.9 mg/kg. `O=C(c1ccc(F)cc1)C1CCN(CCCC2CCc3onc(-c4ccc(F)cc4)c3C2=O)CC1` (stereo not drawn) [Example 20, 6,7-Dihydro-5-[3-(4-(4-fluorobenzoyl)-1-piperidinyl)-propyl]-3-(4-fluorophenyl)-1,2-benzisoxazol-4(5H)-one hydrochloride] showed an ED50 of 6.2 mg/kg. With `O=C(c1ccc(F)cc1)C1CCN(CCCC2CCc3onc(-c4cccc(F)c4)c3C2=O)CC1` (stereo not drawn) [Example 26, 6,7-Dihydro-5-[3-(4-(4-fluorobenzoyl)-1-piperidinyl)-propyl]-3-(3-fluorophenyl)-1,2-benzisoxazol-4(5H)-one hydrochloride] the ED50 was 5.7 mg/kg. `CN1CCN(C2=Nc3cc(Cl)ccc3Nc3ccccc32)CC1` [clozapine, reference compound] gave an ED50 of 9 mg/kg.
